From article PMC9888480, “Carboranyl-1,8-naphthalimide intercalators induce lysosomal membrane permeabilization and ferroptosis in cancer cell lines” (Journal of Enzyme Inhibition and Medicinal Chemistry, 2023)

Columns and labels:
ct-DNA = assay: Circular dichroism (CD) measurements of ct-DNA; assay type: binding, calf; settings: increasing concentration of conjugate, r = 0.1–0.5, cacodylate buffer pH 7.0
Protocol: The measurements were performed by adding aliquots of DMSO stock solution of the tested compounds to the buffer solution (pH 7.0, 20 mM, cacodylate buffer, DMSO content of the final solutions = 0.22–1.30%). Changes in the CD spectrum of ct-DNA upon the addition of compound were measured at different molar ratios r = [compound]/[ct-DNA]. CD spectra were recorded on a JASCO J-815 CD spectrometer with a JASCO PFD-425S Peltier thermostated cell holder (JASCO, Tokyo, Japan) by using a square quartz cuvette of path length 0.5 cm (0.5 ml) in the 230–400 nm region. The CD profiles reported were an average of three successive scans with a scan time of 200 nm per minute and an appropriately corrected baseline. Temperature was maintained at 20 °C during the experiment.

HepG2 cells = assay: Reduced glutathione (GSH) level measurement (Thiolite Green); assay type: cell-based, human; settings: HepG2, 24 h, total IC50 concentration
Protocol: The HepG2 cells were seeded at a density of 2 × 10^5 cells/well onto 12-well plates and under the same environmental conditions as the above experiments. The cells were then treated with the tested compounds at the final concentration equal to the total IC50 values for 24 h. The cellular GSH level was measured by staining with the nonfluorescent Thiolite Green dye, which emits strong fluorescence after reaction with thiols ([…]) according to the manufacturer’s protocol (AAT Bioquest, Sunnyvale, CA, USA). After incubation with the compounds (34–5 µM, 35–4.5 µM, 36–4 µM, 37–4.5 µM) the cells were detached with trypsin (Corning®) and washed twice with 1 ml of DPBS (Capricorn). Subsequently, the cells were suspended in a staining solution (50 µM) and incubated at 37 °C in a 5% CO2 environment for 30 min. After staining, the fluorescence intensity was analysed using a FACSCalibur flow cytometer with excitation at 488 nm, and the data were analysed using the FlowJo software (Becton Dickinson).

MRC-5 = assay: In vitro cytotoxic activity, MTT assay; assay type: cell-based, human; settings: concentration required to inhibit cell growth by 50%
Description: (§1) The in vitro cytotoxic activity of the obtained carborane-1,8-naphthalimide conjugates was investigated by examining their cytotoxic effects using the MTT (3–(4,5-dimethylthiazol-2-yl)-2,5-diphenyltetrazolium bromide) dye assay[38]^,[39] against the human cancer cell line HepG2 established from hepatocellular carcinoma (for compounds 12–19 and 30–37) and against human lung fibroblasts (MRC-5) (for compounds 34–37). The IC50 values—the drug concentration (µM) required to inhibit cell growth by 50%—determined for the synthesised compounds are summarised in Table 2.
(§2) The cytotoxic properties of the synthesised compounds were evaluated using the human hepatocellular carcinoma cell line (HepG2) and human lung fibroblasts (MRC-5). The HepG2 and MRC-5 cell lines were purchased from American Type Culture Collection (ATCC, Manassas, VA, USA). The HepG2 cells were propagated in Eagle’s minimal essential medium (EMEM, ATCC, Manassas, VA, USA), supplemented with 10% inactivated foetal bovine serum (FBS, Life Technologies, Warsaw, Poland) and 100 units/ml penicillin G with […] streptomycin (Life Technologies, Warsaw, Poland). The cells were incubated at 37 °C in a humidified atmosphere containing 5% CO2. Upon reaching 80–90% confluency, the cells were harvested with 0.25% trypsin in 1 mM EDTA (Life Technologies, Warsaw, Poland) and transferred to 96-well microplates at 2 × 10^4 cells/well. After overnight incubation of cells at 37 °C in a humidified atmosphere containing 5% CO2, the culture medium was removed and replaced with a freshly prepared solution of compounds in the culture medium or medium itself as the control group. The stock solutions of each compound were prepared in DMSO at a concentration of 100 mM and were diluted with the growth medium supplemented with 10% FBS to ensure drug dissolution to obtain concentrations ranging from 0.1 to 1000 µM. Cytotoxicity was evaluated using the MTT assay. After incubation with the compounds, the cells were treated with MTT dye solution (5 mg/ml) for 2 h and lysed with a solvent solution containing DMF (45 ml), sodium dodecylsulfate (13.5 g), and distilled water (55 ml). After overnight incubation at 37 °C, optical density at 550 nm, with a reference wavelength of 670 nm, was measured in an ELISA reader (VarioskanLux, Thermo Scientific, Waltham, MA, USA). All determinations were carried out in triplicate. Results were calculated as the percentage of control group viability. The IC50 values of the compounds were calculated in an Excel add-in ED50V10.

HepG2 = assay: In vitro cytotoxic activity, MTT assay; assay type: cell-based, human; settings: concentration required to inhibit cell growth by 50%
Description: as §1, §2

Substance | change in the CD spectra of ct-DNA (ct-DNA) | GSH level, green fluorescence change compared to control (HepG2 cells) | IC50 (MRC-5) | IC50 (HepG2)
4-[(6-[(1,2-Dicarba-closo-dodecaborane-1-yl)ethylamino]hexyl)amino]-3-nitro-N-[2-(N-pyrrolidinyl)ethyl]-1,8-naphthalimide [Compound 36] | disturbed | not statistically significant | 2330 ± 20 nM | 3.63 ± 0.3 µM
4-[(6-[(1,2-Dicarba-closo-dodecaborane-1-yl)ethylamino]hexyl)amino]-N-[2-(dimethylamino)ethyl]-3-nitro-1,8-naphthalimide [Compound 34] | remarkably disturbed |  | 2130 ± 230 nM | 4.78 ± 0.79 µM
4-[(6-[(1,7-Dicarba-closo-dodecaborane-1-yl)ethylamino]hexyl)amino]-3-nitro-N-[2-(N-pyrrolidinyl)ethyl]-1,8-naphthalimide [Compound 37] | remarkably disturbed |  | 2260 ± 50 nM | 4.23 ± 0.82 µM
4-[(6-[(1,7-Dicarba-closo-dodecaborane-1-yl)ethylamino]hexyl)amino]-N-[2-(dimethylamino)ethyl]-3-nitro-1,8-naphthalimide [Compound 35] | remarkably disturbed | 70% | 2140 ± 360 nM | 4.32 ± 0.71 µM
